US11530200B2, “Compounds” (Inflazome Limited, priority 2018, dated 2022)
Where a name gives a salt, the structure may show the parent alone.

Legend:
NLRP3 = NLRP3 (Homo sapiens (Human), UniProt Q96P20); experiment: THP-1 cells pyroptosis assay (LPS priming, nigericin, resazurin readout); format: cell-based; conditions: 1.0 μg/ml LPS, nigericin 5 μM, NLRP3 inhibitory activity
Description: THP-1 cells (ATCC #TIB-202) were grown in RPMI containing L-glutamine (Gibco #11835) supplemented with 1 mM sodium pyruvate (Sigma #S8636) and penicillin (100 units/ml)/streptomycin (0.1 mg/ml) (Sigma #P4333) in 10% Fetal Bovine Serum (FBS) (Sigma #F0804). The cells were routinely passaged and grown to confluency (10^6 cells/ml). On the day of the experiment, THP-1 cells were harvested and resuspended into RPMI medium (without FBS). The cells were then counted and viability (>90%) checked by Trypan blue (Sigma #T8154). Appropriate dilutions were made to give a concentration of 625,000 cells/ml. To this diluted cell solution was added LPS (Sigma #L4524) to give a 1 μg/ml Final Assay Concentration (FAC). 40 μl of the final preparation was aliquoted into each well of a 96-well plate. The plate thus prepared was used for compound screening. The following method step-by-step assay was followed for compound screening. • 1. Seed THP-1 cells (25,000 cells/well) containing 1.0 μg/ml LPS in 40 μl of RPMI medium (without FBS) in 96-well, black walled, clear bottom cell culture plates coated with poly-D-lysine (VWR #734-0317) • 2. Add […] compound (8 points half-log dilution, with […] top dose) or vehicle (DMSO 0.1% FAC) to the appropriate wells • 3. Incubate for 3 hrs at 37° C., 5% CO2 • 4. Add 5 μl nigericin (Sigma #N7143) (FAC 5 μM) to all wells • 5. Incubate for 1 hr at 37° C., 5% CO2 • 6. At the end of the incubation period, spin plates at 300×g for 3 mins and remove supernatant • 7. Then add 50 μl of resazurin (Sigma #R7017) (FAC 100 μM resazurin in RPMI medium without FBS) and incubate plates for a further 1-2 hrs at 37° C. and 5% CO2 • 8. Plates were read in an Envision reader at Ex 560 nm and Em 590 nm • 9. IC50 data is fitted to a non-linear regression equation (log inhibitor vs response-variable slope 4-parameters) The results of the pyroptosis assay are summarised in Table 1 below as THP IC50.

[1] = PK protocol, intravenous administration in rats; format: in vivo; conditions: rat, plasma, male Sprague Dawley rats, 1 mg/kg; for Vd: read-out: Vdss
Description: Pharmacokinetic parameters were determined in male Sprague Dawley rats (Vital River Laboratory Animal Technology Co Ltd, Beijing, China, 7-9 weeks old). Animals were group housed during the study and maintained under a 12 h light/dark cycle. For intravenous administration, compounds were formulated as a solution in DMSO:PBS [10:90] in 2 mL/kg dosing volume and administered via tail vein. Serial blood samples (about 200 μL) were taken from each animal at each of 8 time-points post dose (0.083, 0.25, 0.5, 1, 2, 4, 8 and 24 h). Samples were held on ice for no longer than 30 minutes before centrifugation (5,696 rpm (3,000 g) for 15 minutes) for plasma generation. Plasma was frozen on dry ice prior to bioanalysis. PK parameters were generated from LC-MS/MS data using Phoenix WinNonlin 6.3 software.

Chain of NLRP3 (Q96P20 whole entry): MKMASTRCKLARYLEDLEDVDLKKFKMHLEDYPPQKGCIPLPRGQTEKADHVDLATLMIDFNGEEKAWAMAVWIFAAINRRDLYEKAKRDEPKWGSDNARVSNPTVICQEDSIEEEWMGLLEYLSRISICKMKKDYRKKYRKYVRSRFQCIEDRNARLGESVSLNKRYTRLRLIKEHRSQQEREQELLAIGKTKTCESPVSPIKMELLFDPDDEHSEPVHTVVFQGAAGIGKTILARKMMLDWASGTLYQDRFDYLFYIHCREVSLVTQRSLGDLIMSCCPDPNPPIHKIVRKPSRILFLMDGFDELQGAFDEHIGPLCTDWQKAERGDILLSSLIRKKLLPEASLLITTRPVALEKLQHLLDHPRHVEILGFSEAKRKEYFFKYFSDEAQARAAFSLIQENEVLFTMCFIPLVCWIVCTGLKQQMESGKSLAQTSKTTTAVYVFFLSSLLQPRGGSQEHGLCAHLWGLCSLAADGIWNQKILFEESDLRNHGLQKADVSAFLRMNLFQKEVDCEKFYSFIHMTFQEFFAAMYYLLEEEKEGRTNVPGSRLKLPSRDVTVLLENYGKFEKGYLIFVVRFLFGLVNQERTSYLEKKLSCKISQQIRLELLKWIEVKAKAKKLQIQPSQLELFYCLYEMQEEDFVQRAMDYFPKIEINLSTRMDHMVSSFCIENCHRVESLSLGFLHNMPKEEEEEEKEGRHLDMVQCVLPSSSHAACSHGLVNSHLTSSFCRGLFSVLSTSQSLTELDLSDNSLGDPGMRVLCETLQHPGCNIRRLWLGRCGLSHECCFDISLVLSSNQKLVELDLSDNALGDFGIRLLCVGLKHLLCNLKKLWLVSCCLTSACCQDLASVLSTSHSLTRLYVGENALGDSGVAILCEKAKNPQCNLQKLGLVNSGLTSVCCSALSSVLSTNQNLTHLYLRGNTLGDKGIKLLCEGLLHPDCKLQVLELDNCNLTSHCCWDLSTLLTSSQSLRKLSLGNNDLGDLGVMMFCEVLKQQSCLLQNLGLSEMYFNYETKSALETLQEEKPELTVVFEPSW

| SMILES | IC50 (NLRP3) [µM] | AUC [1] [ng·h/mL] | clearance [1] [mL/min/kg] | half-life [1] [h] | Vd [1] [L/kg] |
| --- | --- | --- | --- | --- | --- |
| CC(C)c1cc(F)cc(-c2cccnc2)c1CC(=O)NS(=O)(=O)c1cnn(C2CC2)c1 [Example 11, N-((1-Cyclopropyl-1H-pyrazol-4-yl)sulfonyl)-2-(4-fluoro-2-isopropyl-6-(pyridin-3-yl)phenyl)acetamide] | 1 to 5 | 1560 | 10.7 | 4.4 | 0.95 |
| COc1cc(-c2cc(F)cc(C(C)C)c2CC(=O)NS(=O)(=O)c2cnn(C3CC3)c2)ccn1 [Example 18, N-((1-Cyclopropyl-1H-pyrazol-4-yl)sulfonyl)-2-(4-fluoro-2-isopropyl-6-(2-methoxypyridin-4-yl)phenyl)acetamide, potassium salt] | ≤ 1 | 1550 | 15.4 | 16.4 | 6.52 |
| COc1cc(-c2cc(F)cc(C(C)C)c2CC(=O)NS(=O)(=O)c2ncn(C3CC3)n2)ccn1 [Example 21, N-((1-Cyclopropyl-1H-1,2,4-triazol-3-yl)sulfonyl)-2-(4-fluoro-2-isopropyl-6-(2-methoxypyridin-4-yl)phenyl)acetamide] | 1 to 5 | 827 | 20.2 | 9.3 | 6.15 |
| CC(C)c1cc(F)cc(C(C)C)c1CC(=O)NS(=O)(=O)c1cnn(C2CC2)c1 [Example 24, N-((1-Cyclopropyl-1H-pyrazol-4-yl)sulfonyl)-2-(4-fluoro-2,6-diisopropylphenyl)acetamide] | 1 to 5 | 1270 | 13.1 | 2.6 | 1.94 |
